The target of this experiment is T1, BLM-RAD54 interaction (BLM F2 and N-RAD54 F1) (Homo sapiens, UniProt Q92698).
T1 construct: expressed in transfected cells; host or cells: HEK293T
T1 sequence (Q92698 1-212): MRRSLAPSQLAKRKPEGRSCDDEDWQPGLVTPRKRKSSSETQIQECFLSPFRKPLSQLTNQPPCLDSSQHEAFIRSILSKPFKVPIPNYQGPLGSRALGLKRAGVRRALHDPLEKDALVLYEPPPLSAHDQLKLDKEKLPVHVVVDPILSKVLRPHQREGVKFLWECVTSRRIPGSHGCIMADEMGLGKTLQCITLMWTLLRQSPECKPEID
Put plainly: Renilla luciferase-based protein complementation assay (PCA). It is filed as cell-based. The following applies: disruption of BLM F2 / N-RAD54 F1 interaction, HEK293T cells, 1 nM to 100 μM; read-out: EC50. The method, then:
Specifically, N-RAD54-F1, C-RAD54-F1, BLM-F1 and BLM-F2 were transfected in HEK293T. Forty-eight hours post-transfection, Renilla luciferase-based PCA were carried out with the indicated combination of the expressed proteins. The experiment was repeated three times. Mean±S.D.
Using the Renilla luciferase-based protein complementation assay described earlier, 1280 FDA/EMA approved small molecules present in Prestwick chemical library were screened for their ability to disrupt BLM-RAD54 interaction. Each of the small molecules was incubated with HEK293T cells expressing BLM-F2 and N-RAD54-F1. Compared to cells expressing only BLM-F2 and N-RAD54-F1, the decrease in Renilla luciferase intensity in presence of each small molecule was monitored. Percentage disruption of the interaction between BLM F2 and N-RAD54 F1 was plotted in form of heatmap. The disruption of the BLM-RAD54 interaction was determined by a decrease in the Renilla luciferase activity as compared to control untreated cells.
The percentage disruption of the interaction between BLM F2 and N-RAD54 F1 was plotted as a non-linear regression line. The data was from three independent experiments.
Renilla Luciferase (Rlu) based Protein complementation assay was carried out as described in (Stefan et al., 2007). For preliminary screening of the Prestwick Chemical Library (containing 1280 FDA/EMA approved small molecules), HEK293T cells were seeded in the 6-well plates a day prior to the transfection. Next day the cells were transfected by 2 μg each of pcDNA3.1 N-RAD54 F1, pcDNA3.1 C-RAD54 F1, pcDNA3.1 BLM F1, pcDNA3.1 BLM F2 plasmids (alone or in different combinations) using Lipofectamine 2000 (according to the manufacturer's protocol). 36 hours post-transfection, approximately […] cells were seeded in a 96-well plate and incubated at 37° C. for 2 hour with or without 10 μM of the 1280 small molecules present in the library. 10 μM of Coenleterazine h was added into each well and Rluc activity was monitored for the first 10 seconds in Varioskan Microplate Reader (Thermo Fisher Scientific). The validation screen was performed with 17 small molecules at 100 μM, 10 μM, 1 μM, 100 nM, 10 nM and 1 nM concentrations. The percentage reduction in the protein-protein interaction was then calculated as compared to the control wells (without any small molecule).

Counter-ions that a name gives are not always drawn.

This passage reports EC50 results from patent publication US20240180881A1, “METHODS FOR DECREASING RESISTANCE TO CHEMOTHERAPY” (National Institute of Immunology, priority 2022, published 2024).

In the case of `Nc1nc2nn[nH]c2c(=O)[nH]1` [C1, Azaguanine-8], the EC50 came to 22.3 ± 1.98 nM.
For `NC(=O)NC1NC(=O)NC1=O` (stereo not drawn) [C2, Allantoin] the value was 17.9 ± 1.82 nM; for `CN(C)C(=N)N=C(N)N` [C4, Metformin hydrochloride], 3.01 ± 0.812 nM; for `COc1ccc(CC2c3cc(OC)c(OC)cc3CC[N+]2(C)CCC(=O)OCCCCCOC(=O)CC[N+]2(C)CCc3cc(OC)c(OC)cc3C2Cc2ccc(OC)c(OC)c2)cc1OC` (stereo not drawn) [C5, Atracurum besylate], 5.38 ± 2.17 nM.
In the case of `C[C@]12C=CC(=O)C=C1CC[C@@H]1[C@@H]2C(=O)C[C@@]2(C)[C@H]1CC[C@]2(O)C(=O)CO` [C6, Prednisone] it was 6.26 ± 2 nM; in that of `Cc1ncc([N+](=O)[O-])n1CCO` [C8, Metronidazole], 20.5 ± 2.61 nM.
